Test system: Boston fern Callus tissue cultures
Experiment: Intracellular copper content of plant callus tissues incubated with TEPA
Type: cell-based
Conditions: two days
Description: Plant cells: The effect of TEPA on the intracellular copper content of plant cells was determined as follows. Boston fern Callus tissue cultures were obtained from a commercial plant tissue culture production facility (Biological Industries, Kibbutz Bet Ha'Emek, Israel) and incubated with different concentrations of TEPA in the culture medium for two days at room temperature. After three washes with PBS the tissues were suspended in 0.03 M ultra pure nitric acid and homogenized with a high shear mixer (polytron, Kinematica, Switzerland) for 3 minutes to disrupt the cells and release intracellular copper. Cell samples were vortexed before transferring to a vial autosampler and analyzed in duplicate by a Perkin Elmer graphite furnace atomic absorption spectrophotometer at a wavelength of 324.7 nm. The samples were analyzed against copper standard solution prepared from a commercial stock solution that was diluted with 0.03 M ultra pure nitric acid.

SMILES: NCCNCCNCCNCCN [TEPA, tetraethylenepentamine]
- Average Intracellular Copper Content (ppb) (TEPA 10 μM in medium): 13.85 +/− 4.09 ppb
- Average Intracellular Copper Content (ppb) (TEPA 50 μM in medium): 8.45 +/− 0.05 ppb
- Average Intracellular Copper Content (ppb) (TEPA 100 μM in medium): 7.1 +/− 2.12 ppb
